Measured values from the NIST ThermoML archive (doi:10.1016/j.jct.2017.03.006).

Assay: xn = mol fraction of the nth substance listed
Conditions: 333.15 K, Liquid, Vibrating tube method

Cc1ccc(C)c(C)c1 [1,2,4-trimethylbenzene] + CCC(C)O
mass density [kg/m3]
Conditions	x2 = 0	x2 = 0.1	x2 = 0.1989	x2 = 0.3011	x2 = 0.4002	x2 = 0.5001	x2 = 0.5997	x2 = 0.6999	x2 = 0.7999	x2 = 0.9
5000 kPa	–	–	–	–	–	–	–	799.5	791.9	784
10000 kPa	851.4	843.9	837.6	831.1	824.7	818.7	811.3	803.9	796.5	788.6
15000 kPa	855.1	847.9	841.6	835.1	828.8	822.9	815.5	808.2	800.8	793
20000 kPa	858.6	851.6	845.4	839	832.7	826.9	819.5	812.3	805	797.2
30000 kPa	865.3	858.6	852.5	846.2	840.1	834.4	827.1	819.9	812.7	805
40000 kPa	871.6	865.1	859.1	852.9	846.8	841.2	834.1	826.9	–	–
